Consider 19 compounds from patent US11963960B2 (Flash Therapeutics, LLC, priority 2020, dated 2024).

Where two headings read alike, the source gives them in different places. A value given as a limit tells only on which side of the number the result lay.

In series [1] the target is N-terminally GST-tagged HCK (75-526) (Homo sapiens (Human), UniProt P08631). Put plainly: HCK Kinase Assay (ProFluor Src-Family Kinase Assay). Type of series: biochemical. The method, boiled down: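 ProFluor Src-family format: after the kinase reaction, protease solution was added for 60 min at room temperature (22-25° C), then stabilizer.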
The nature of series [2]: Assessment of In Vitro Metabolic Stability in dog liver microsomes. Type of series: in vitro ADME. The note with it: for half-life at 1 μM: dog liver microsomes 0.5 mg/mL, 1 μM compound, NADPH, 37° C., read-out: Dog LM t1/2; for t1/2 in dog LM compared with the compound of example 1: comparison in words. The procedure: Assessment of In Vitro Metabolic Stability
Dog liver microsomes (0.5 mg/mL) were purchased from Corning. Stock solutions were prepared at 10 mM in DMSO for the test compound. Aliquots of the stock solutions were diluted to 0.5 mM with acetonitrile, and then further diluted upon the addition of liver microsomes/buffer to 1.5 μM. An aliquot of 30 μL of 1.5 μM solutions was mixed with 15 μL of 6 mM NADPH and the final concentration of NADPH was 2 mM, which had been pre-warmed to 37° C. Test compound and Ketanserin final concentrations were 1 μM. The plates were kept in a 37° C. water bath for the duration of the experiment. At each time point (0, 5, 15, 30, 45 minutes), 135 μL of acetonitrile was added into corresponding wells. After the final time point was quenched by acetonitrile, the assay plates were shaken (IKA, MTS 2/4) for 10 min (600 rpm/min) and then centrifuged at 5,594 g for 15 min (Thermo Multifuge×3R). Aliquots of the supernatant were taken, diluted 1:1 into distilled water, and analyzed by LC-MS/MS. The peak area response ratio to internal standard (PARR) of the compounds at 5, 15, 30, 45 minutes was compared to the PARR at time 0 to determine the percent of test compound remaining at each time point. Half-lives were calculated using Excel software, fitting to a single-phase exponential decay equation.
For orientation: Microsomes from liver hold many membrane-bound enzymes, among them those of drug oxidation.

A short description of series [3]: Assessment of In Vivo Pharmacokinetics in Beagle dog. Particulars: for Dog BAV: male Beagle dog, iv or po at 1 mg/kg or 3 mg/kg. How it is done: Assessment of In Vivo Pharmacokinetics
A total of 6 Male Non-naïve Beagle dog, weighing approximately 8.00-10.00 kg (Beijing Marshall Biotechnology Co. LTD), were dosed by intravenous injection (iv) or oral gavage (po) at 1 mg/kg or 3 mg/kg. The vehicles of IV and PO are 100% saline and 100% (0.5% MC in water), respectively. The IV dose was conducted via cephalic vein injection, PO via gavage administration. The animals were restrained manually, and approximately 0.5 mL blood/time point was collected from cephalic vein into pre-cooled K2EDTA tubes. Blood sample was put on wet ice and centrifuged at 4° C. (2000 g, 5 min) to obtain plasma within 15 minutes of sample collection. Plasma samples were analyzed by UPLC/MS-MS. PK parameters were estimated by non-compartmental model using WinNonlin6.4.

The mark [4] stands for this setting: HCK inhibitory activity, 50 μM ATP, read-out: HCK Activity.

Chain of N-terminally GST-tagged HCK (75-526) (P08631 75-526): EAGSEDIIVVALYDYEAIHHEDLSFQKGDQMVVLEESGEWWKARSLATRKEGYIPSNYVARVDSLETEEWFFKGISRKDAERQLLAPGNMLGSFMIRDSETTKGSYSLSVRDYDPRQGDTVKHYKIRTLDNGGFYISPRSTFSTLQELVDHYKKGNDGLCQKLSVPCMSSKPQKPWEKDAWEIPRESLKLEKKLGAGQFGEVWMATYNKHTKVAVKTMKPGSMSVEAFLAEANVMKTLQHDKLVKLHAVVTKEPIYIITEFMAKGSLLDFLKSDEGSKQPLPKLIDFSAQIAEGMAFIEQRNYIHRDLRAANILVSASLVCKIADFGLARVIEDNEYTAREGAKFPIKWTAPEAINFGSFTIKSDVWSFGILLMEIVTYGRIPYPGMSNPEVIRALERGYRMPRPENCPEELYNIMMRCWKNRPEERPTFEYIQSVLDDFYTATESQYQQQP

As for `CN1CCN([C@H]2CC[C@H](n3cc(-c4ccc(Oc5ccccc5)cc4)c4c(N)ncnc43)CC2)CC1` [Example 1, 7-((trans)-4-(4-methylpiperazin-1-yl)cyclohexyl)-5-(4-phenoxyphenyl)-7H-pyrrolo[2,3-d]pyrimidin-4-amine], the IC50 in series [1] is below 50 nM; in series [1] (50 μM ATP, read-out: HCK IC50), 3.3 nM. For the same compound, the half-life at 1 μM in series [2] came to 0.183 h. The “Dog BAV” value in series [3] is 0 % F.
In the case of `C[C@H]1CN([C@H]2CC[C@H](n3cc(-c4ccc(Oc5ccccc5)cc4)c4c(N)ncnc43)CC2)CCN1` [Example 19, 7-((trans)-4-((S)-3-methylpiperazin-1-yl)cyclohexyl)-5-(4-phenoxyphenyl)-7H-pyrrolo[2,3-d]pyrimidin-4-amine], the IC50 in series [1] (50 μM ATP, read-out: HCK IC50) was found to be 17 nM. Further, the IC50 in series [1] (setting [4]) is below 50 nM. Besides, in series [2], the “t1/2 in dog LM compared with the compound of example 1” value was “higher t1/2” and the half-life at 1 μM was found to be 1.4 h.
`C[C@H]1CN([C@H]2CC[C@H](n3nc(-c4ccc(Oc5ccccc5)cc4)c4c(N)ncnc43)CC2)CCN1` [Example 21, 1-((trans)-4-((S)-3-methylpiperazin-1-yl)cyclohexyl)-3-(4-phenoxyphenyl)-1H-pyrazolo[3,4-d] pyrimidin-4-amine]: the IC50 in series [1] (50 μM ATP, read-out: HCK IC50) stood at 43 nM. In addition, the IC50 in series [1] (setting [4]) was below 50 nM. In addition, in series [2], the “t1/2 in dog LM compared with the compound of example 1” value is “higher t1/2” and the half-life at 1 μM came out at 2.13 h.
With `CN1CCN([C@H]2CC[C@H](n3nc(-c4ccc(Oc5ccccc5)cc4F)c4c(N)ncnc43)CC2)CC1` [Example 103, 3-(2-Fluoro-4-phenoxyphenyl)-1-((trans)-4-(4-methylpiperazin-1-yl)cyclohexyl)-1H-pyrazolo [3,4-d] pyrimidin-4-amine], the IC50 in series [1] (50 μM ATP, read-out: HCK IC50) is 4.1 nM. For the same compound, the IC50 in series [1] (setting [4]) was below 50 nM. In series [2], the “t1/2 in dog LM compared with the compound of example 1” value is “higher t1/2” and the half-life at 1 μM amounted to 0.967 h. In addition, in series [3] (dog, comparison in words), the bioavailability in vivo result is “higher bioavailability” and the “plasma clearance in vivo” value is “lower plasma clearance”. For the same compound, in series [3], the “Dog BAV” value is reported as 24 % F.
In the case of `NCC1OCC(N2CCC(n3cc(-c4ccc(Oc5ccccc5)cc4)c4c(N)ncnc43)CC2)CO1` (stereo not shown) [Example 162, 7-(1-(2-(aminomethyl)-1,3-dioxan-5-yl)piperidin-4-yl)-5-(4-phenoxyphenyl)-7H-pyrrolo[2,3-d]pyrimidin-4-amine], the IC50 in series [1] (setting [4]) is below 50 nM.
As for `CN1CCN([C@H]2CC[C@@H](c3nc(-c4ccc(Oc5ccccc5)cc4F)c4c(N)ncnn43)CC2)CC1` [Example 164, 5-(2-Fluoro-4-phenoxyphenyl)-7-((cis)-4-(4-methylpiperazin-1-yl)cyclohexyl)imidazo[5,1-f][1,2,4]triazin-4-amine], the IC50 in series [1] (setting [4]) lay within 50 to 250 nM.
`C[C@H]1CN([C@H]2CC[C@H](c3nc(-c4ccc(Oc5ccccc5)cc4F)c4c(N)ncnn43)CC2)CCN1` [Example 165, 5-(2-fluoro-4-phenoxyphenyl)-7-((trans)-4-((S)-3-methylpiperazin-1-yl)cyclohexyl)imidazo[5,1-f][1,2,4]triazin-4-amine]: the IC50 in series [1] (50 μM ATP, read-out: HCK IC50) was 5 nM; in series [1] (setting [4]), below 50 nM. For the same compound, the “t1/2 in dog LM compared with the compound of example 1” value in series [2] is listed as “higher t1/2”. For the same compound, the half-life at 1 μM in series [2] stood at 2.78 h.
For the compound `C[C@H]1CN([C@H]2CC[C@@H](c3nc(-c4ccc(Oc5ccccc5)cc4F)c4c(N)ncnn43)CC2)CCN1` [Example 166, 5-(2-fluoro-4-phenoxyphenyl)-7-((cis)-4-((S)-3-methylpiperazin-1-yl)cyclohexyl)imidazo[5,1-f][1,2,4]triazin-4-amine], the IC50 in series [1] (setting [4]) was 250 to 10000 nM.
The same measure, in the same setting: for `CN1CCN([C@H]2CC[C@@H](c3cc(-c4ccc(Oc5ccccc5)cc4)c4c(N)ncnn43)CC2)CC1` [Example 167, 7-((cis)-4-(4-Methylpiperazin-1-yl)cyclohexyl)-5-(4-phenoxyphenyl)pyrrolo[2,1-f][1,2,4]triazin-4-amine] the value was 250 to 10000 nM.
For `CN1CCN([C@H]2CC[C@H](c3cc(-c4ccc(Oc5ccccc5)cc4)c4c(N)ncnn43)CC2)CC1` [Example 168, 7-((trans)-4-(4-Methylpiperazin-1-yl)cyclohexyl)-5-(4-phenoxyphenyl)pyrrolo[2,1-f][1,2,4]triazin-4-amine], in series [1] (setting [4]), the IC50 is below 50 nM.
With `C[C@H]1CN([C@H]2CC[C@H](c3cc(-c4ccc(Oc5ccccc5)cc4)c4c(N)ncnn43)CC2)CCN1` [Example 169, 7-((trans)-4-((S)-3-Methylpiperazin-1-yl)cyclohexyl)-5-(4-phenoxyphenyl)pyrrolo[2,1-f][1,2,4]triazin-4-amine], the IC50 in series [1] (setting [4]) is below 50 nM.
Same read-out and setting: for `C[C@H]1CN([C@H]2CC[C@@H](c3cc(-c4ccc(Oc5ccccc5)cc4)c4c(N)ncnn43)CC2)CCN1` [Example 170, 7-((cis)-4-((S)-3-Methylpiperazin-1-yl)cyclohexyl)-5-(4-phenoxyphenyl)pyrrolo[2,1-f][1,2,4]triazin-4-amine] the value was 50 to 250 nM.
Still for that read-out and setting: the result for `CN1CCN([C@H]2CC[C@H](c3cc(-c4ccc(NC(=O)Nc5cc(C(C)(C)C)on5)cc4)c4c(N)ncnn43)CC2)CC1` [Example 171] reads below 50 nM; that for `CN1CCN([C@H]2CC[C@@H](c3cc(-c4ccc(NC(=O)Nc5cc(C(C)(C)C)on5)cc4)c4c(N)ncnn43)CC2)CC1` [Example 172], below 50 nM.
Consider `CN1CCN([C@H]2CC[C@H](c3nc(-c4ccc(Oc5ccccc5)cc4)c4c(N)nccn43)CC2)CC1` [Example 173, 3-((trans)-4-(4-Methylpiperazin-1-yl)cyclohexyl)-1-(4-phenoxyphenyl)imidazo[1,5-a]pyrazin-8-amine], for which, in series [1] (setting [4]), the IC50 is below 50 nM.
Turning to `CN1CCN([C@H]2CC[C@@H](c3nc(-c4ccc(Oc5ccccc5)cc4)c4c(N)nccn43)CC2)CC1` [Example 174, 3-((cis)-4-(4-Methylpiperazin-1-yl)cyclohexyl)-1-(4-phenoxyphenyl)imidazo[1,5-a]pyrazin-8-amine], the IC50 in series [1] (setting [4]) fell in the range of 250 to 10000 nM.
Same read-out and setting: the result for `CN1CCN([C@H]2CC[C@H](c3nc(-c4ccc(NC(=O)Nc5cc(C(C)(C)C)on5)cc4)c4c(N)nccn43)CC2)CC1` [Example 175, 1-(4-(8-amino-3-((trans)-4-(4-methylpiperazin-1-yl)cyclohexyl)imidazo[1,5-a]pyrazin-1-yl)phenyl)-3-(5-(tert-butyl)isoxazol-3-yl)urea] reads below 50 nM; that for `CN1CCN([C@H]2CC[C@@H](c3cn(-c4ccc(Oc5ccccc5)cc4)c4c(N)ncnc43)CC2)CC1` [Example 176, 7-((cis)-4-(4-methylpiperazin-1-yl)cyclohexyl)-5-(4-phenoxyphenyl)-5H-pyrrolo[3,2-d]pyrimidin-4-amine], 250 to 10000 nM.
Consider `CN1CCN([C@H]2CC[C@H](c3cn(-c4ccc(Oc5ccccc5)cc4)c4c(N)ncnc43)CC2)CC1` [Example 177, 7-((trans)-4-(4-methylpiperazin-1-yl)cyclohexyl)-5-(4-phenoxyphenyl)-5H-pyrrolo[3,2-d]pyrimidin-4-amine], for which the IC50 in series [1] (setting [4]) is below 50 nM.
